Data published in BigSolDB 2.1.

O=c1cc(-c2ccc(O)cc2)oc2cc(O)cc(O)c12
solubility (mole fraction)
Conditions	in acetone	in ethanol	in ethyl acetate	in methanol	in n-butanol	in n-propanol	in water
288.2 K	0.000338	0.000244	0.000172	0.000118	0.000478	0.000343	7e-07
298.2 K	0.000367	0.000295	0.000239	0.000148	0.000568	0.000401	1.03e-06
308.2 K	0.000451	0.000346	0.000323	0.000179	0.0007	0.000473	1.57e-06
318.2 K	0.00054	0.000397	0.000442	0.000219	0.000822	0.000564	2.11e-06
328.2 K	0.000654	0.000449	0.000548	0.000254	0.000934	0.000677	2.81e-06
